Results published in US6893821B2, “Agents that modulate DNA-PK activity and methods of use thereof” (The Regents of the University of California, priority 2000, dated 2005).

Experiments:
[1] = test system: IKKβ; test: In vitro IKK kinase assay: recombinant IKKβ incubated with DNA-PK with or without ISS-ODN; type: biochemical
Procedure: (§1) The ODNs (ps-ss) used include an ISS-ODN with an active CpG motif (AACGTT), a methylated ISS-ODN at the ^5C of the CpG dinucleotide (AA*CGTT) and various control ODNs. These ODNs were incubated at concentrations of 0, 0.1, 0.3, or 1 ng/reaction. The po-ISS-ODN was incubated at concentration of 20, 50 or 100 ng/reaction. The po-ds-ISS-ODN was incubated at concentration of 0, 0.5, 1, 2, 5 or 10 ng/reaction. The bacterial or calf thymus DNAs were each incubated at concentration of 1, 2 or 5 ng/reaction. Electrophoretic gel mobility shift assay (EMSA) was performed as previously described. Chu et al. (1999) Immunity 11:721-731; and Li et al., 1999, supra). In vitro IKK kinase assays were performed using purified IKK derived from Sf9 insect cell lysates as was previously described. Zandi et al. (1998) Science 281:1360-1363.
To explore a role of ISS-activated DNA-PK in IKK activation we tested whether affinity-purified DNA-PK can directly activate recombinant IKKα or IKKβ purified from Sf9 cells (Zandi et al., 1998, supra). […] Furthermore, although DNA-PKcs phosphorylated IκBα that activity was considerably lower than that achieved by IKKβ plus DNA-PK. […] To further confirm the activation of IKKβ by DNA-PK, we performed a coupled-kinase assay. Recombinant IKKβ was pre-incubated with DNA-PK in the presence or absence of ISS-ODN followed by immunoprecipitation of IKKβ and IκB kinase activity was measured. […] We next determined whether DNA-PK phosphorylates IKKβ.

[2] = test system: bone marrow derived macrophages (BMDM); test: Northern blot of IL-6 and IL-12 mRNA in BMDM; type: cell-based, mice
Procedure: PCR were performed under the following conditions by appropriate cycling number (94° C. for 30 seconds; 65° C. for 30 seconds; and 68° C. for 30 seconds). PCR products were visualized by electrophoresis on 1.5% TAE agarose gels after being stained with ethidium bromide. BMDM isolated from either wild type or Ku 70^−/− mice were treated with ISS (10 μg/ml) or LPS (10 μg/ml) or left untreated for 6.5 hours. Total RNA was isolated and 10 μg of total RNA was separated on 1% agarose gel and then transferred onto a nylon membrane. The membrane was probed with [^32P]-labeled IL-6 or IL-12 or GAPDH cDNA followed by autoradiography, as described previously. Chu et al. (1999) Immunity 11:1.
BMDM (2.5×10^5/well) from wt, or Ku70^−/− and Ku80^−/− mice were treated with LPS (1 μg/ml), ISS-ODN (5 μg/ml) or M-ODN (5 μg/ml) for 24 hours. IL-6 (A) or IL-12 (B) levels in the supernatants were determined by ELISA. Results are means±S.D, of 5 separate experiments for wt and Ku70^−/− and 3 separate experiments for Ku80^−/− mice. (C) BMDM were incubated with LPS (10 μg/ml) or ISS-ODN (5 μg/ml) for 6.5 hours. Total RNA was isolated and analyzed for the presence of IL-6, IL-12 and GAPDH messages by a Northern blot assay, as described in Example 1. Results are means±S.D. of 5 separate experiments for wt and Ku70^−/− and 3 separate experiments for Ku80^−/− mice. […]

[3] = test system: bone marrow derived macrophages (BMDM); details: Martin-Orozco et al. (1999); cited from earlier work
[4] = test system: IKKα; test: In vitro IKK kinase assay: recombinant IKKα incubated with DNA-PK with ISS-ODN; type: biochemical; details: IKKα incubated with DNA-PK in the presence of ISS-ODN; not beyond DNA-PK alone
Procedure: as §1
To explore a role of ISS-activated DNA-PK in IKK activation we tested whether affinity-purified DNA-PK can directly activate recombinant IKKα or IKKβ purified from Sf9 cells (Zandi et al., 1998, supra). […] Furthermore, although DNA-PKcs phosphorylated IκBα that activity was considerably lower than that achieved by IKKβ plus DNA-PK. […] Recombinant IKKβ was pre-incubated with DNA-PK in the presence or absence of ISS-ODN followed by immunoprecipitation of IKKβ and IκB kinase activity was measured. […] We next determined whether DNA-PK phosphorylates IKKβ.

## 5′-TGACTGTGAACGTTCGAGATGA-3′ [ISS-ODN]
[1]; incubated with ISS-ODN
  phosphorylation of catalytically inactive IKKβ (KA) by DNA-PK: phosphorylated
[1]; pre-incubation with DNA-PK with or without ISS-ODN, then immunoprecipitation of IKKβ
  activation of IKKβ by DNA-PK, coupled-kinase assay: only activates IKKβ in the presence of ISS-ODN
[1]; recombinant IKKβ incubated with DNA-PK in the presence of ISS-ODN
  kinase activity of IKKβ measured by IκB phosphorylation: further increased
[2]; DNA-PKcs-deficient BMDM
  induction of IL-6 and IL-12 mRNAs: Little induction
[2]; Ku70-/- or Ku80-/- BMDM, 6.5 hours
  induction of IL-6 and IL-12 mRNA (Northern blot): lack of induction
[3]
  IL-6 and IL-12 secretion: high levels
[4]
  IκB kinase activity of IKKα: Only a small enhancement
